According to patent US20240287007A1, “N-(1,3,4-OXADIAZOL-2-YL)PHENYLCARBOXAMIDES AS HERBICIDES” (BAYER AKTIENGESELLSCHAFT, priority 2021, published 2024):

Tests used:
Assay type in all cases: in vivo
[1] = system: ABUTH (Abutylon threophrasti); test: Pre-emergence herbicidal effect against ABUTH; settings: 80 g/ha, scored visually after 3 weeks
Excerpt: (§1) Seeds of monocotyledonous and dicotyledonous weed plants and crop plants are laid out in sandy loam soil in wood-fiber pots and covered with soil. The compounds of the invention, formulated in the form of wettable powders (WP) or as emulsion concentrates (EC), are then applied to the surface of the covering soil as aqueous suspension or emulsion at a water application rate equating to 600 to 800 l/ha with addition of 0.2% wetting agent. After the treatment, the pots are placed in a greenhouse and kept under good growth conditions for the trial plants. The damage to the test plants is scored visually after a test period of 3 weeks by comparison with untreated controls (herbicidal activity in percent (%): 100% activity=the plants have died, 0% activity=like control plants).

[2] = system: ECHCG (Echinochloa crus-galli); test: Pre-emergence herbicidal effect against ECHCG; settings: scored visually after 3 weeks
Excerpt: as §1

[3] = system: KCHSC (Kochia scoparia); test: Post-emergence herbicidal action against KCHSC; settings: visual assessment after about 3 weeks
Description: (§2) Seeds of monocotyledonous and dicotyledonous weed and crop plants are laid out in sandy loam soil in wood-fiber pots, covered with soil and cultivated in a greenhouse under good growth conditions. 2 to 3 weeks after sowing, the trial plants are treated at the one-leaf stage. The compounds of the invention, formulated in the form of wettable powders (WP) or as emulsion concentrates (EC), are then sprayed onto the green parts of the plants as aqueous suspension or emulsion at a water application rate equating to 600 to 800 l/ha with addition of 0.2% wetting agent. After the test plants have been left to stand in the greenhouse under optimal growth conditions for about 3 weeks, the action of the preparations is assessed visually in comparison to untreated controls (herbicidal action in percent (%): 100% activity=the plants have died, 0% activity=like control plants).

[4] = system: POLCO (Polygonum convolvulus); test: Post-emergence herbicidal action against POLCO; settings: visual assessment after about 3 weeks
Description: as §2

[5] = system: POLCO (Polygonum convolvulus); test: Pre-emergence herbicidal effect against POLCO; settings: scored visually after 3 weeks
Excerpt: as §1

[6] = system: KCHSC (Kochia scoparia); test: Pre-emergence herbicidal effect against KCHSC; settings: scored visually after 3 weeks
Excerpt: as §1

[7] = system: PHBPU (Pharbitis purpurea); test: Pre-emergence herbicidal effect against PHBPU; settings: 80 g/ha, scored visually after 3 weeks
Excerpt: as §1

[8] = system: ABUTH (Abutylon threophrasti); test: Post-emergence herbicidal action against ABUTH; settings: visual assessment after about 3 weeks
Description: as §2

[9] = system: VERPE (Veronica persica); test: Pre-emergence herbicidal effect against VERPE; settings: scored visually after 3 weeks
Excerpt: as §1

[10] = system: VIOTR (Viola tricolor); test: Post-emergence herbicidal action against VIOTR; settings: visual assessment after about 3 weeks
Description: as §2

[11] = system: MATIN (Matricaria inodora); test: Pre-emergence herbicidal effect against MATIN; settings: scored visually after 3 weeks
Excerpt: as §1

[12] = system: ALOMY (Alopecurus myosuroides); test: Pre-emergence herbicidal effect against ALOMY; settings: scored visually after 3 weeks
Excerpt: as §1

[13] = system: AVEFA (Avena fatua); test: Pre-emergence herbicidal effect against AVEFA; settings: scored visually after 3 weeks
Excerpt: as §1

[14] = system: AMARE (Amaranthus retroflexus); test: Pre-emergence herbicidal effect against AMARE; settings: scored visually after 3 weeks
Excerpt: as §1

[15] = system: SETVI (Setaria viridis); test: Pre-emergence herbicidal effect against SETVI; settings: scored visually after 3 weeks
Excerpt: as §1

[16] = system: VERPE (Veronica persica); test: Post-emergence herbicidal action against VERPE; settings: visual assessment after about 3 weeks
Description: as §2

[17] = system: AMARE (Amaranthus retroflexus); test: Post-emergence herbicidal action against AMARE; settings: visual assessment after about 3 weeks
Description: as §2

[18] = system: PHBPU (Pharbitis purpurea); test: Post-emergence herbicidal action against PHBPU; settings: visual assessment after about 3 weeks
Description: as §2

[19] = system: MATIN (Matricaria inodora); test: Post-emergence herbicidal action against MATIN; settings: visual assessment after about 3 weeks
Description: as §2

[20] = system: LOLRI (Lolium rigidum); test: Pre-emergence herbicidal effect against LOLRI; settings: scored visually after 3 weeks
Excerpt: as §1

[21] = system: ALOMY (Alopecurus myosuroides); test: Post-emergence herbicidal action against ALOMY; settings: visual assessment after about 3 weeks
Description: as §2

[22] = system: LOLRI (Lolium rigidum); test: Post-emergence herbicidal action against LOLRI; settings: visual assessment after about 3 weeks
Description: as §2

[23] = system: DIGSA (Digitaria sanguinalis); test: Pre-emergence herbicidal effect against DIGSA; settings: scored visually after 3 weeks
Excerpt: as §1

[24] = system: VIOTR (Viola tricolor); test: Pre-emergence herbicidal effect against VIOTR; settings: scored visually after 3 weeks
Excerpt: as §1

[25] = system: SETVI (Setaria viridis); test: Post-emergence herbicidal action against SETVI; settings: visual assessment after about 3 weeks
Description: as §2

[26] = system: DIGSA (Digitaria sanguinalis); test: Post-emergence herbicidal action against DIGSA; settings: visual assessment after about 3 weeks
Description: as §2

## C[S+]([O-])c1c(OC(F)(F)F)ccc(C(=O)Nc2nnco2)c1Cl (racemic) [Example 1-32, 2-chloro-3-(methylsulfinyl)-N-(1,3,4-oxadiazol-2-yl)-4-(trifluoromethoxy)benzamide]
[1]
  Pre-emergence effect at 80 g/ha against ABUTH in %: 100%
[2]; 20 g/ha
  Pre-emergence effect at 20 g/ha against ECHCG in %: 100%
[2]; 80 g/ha
  Pre-emergence effect at 80 g/ha against ECHCG in %: 100%
[3]; 20 g/ha
  Post-emergence effect at 20 g/ha against KCHSC in %: 100%
[3]; 80 g/ha
  Post-emergence effect at 80 g/ha against KCHSC in %: 100%
[4]; 20 g/ha
  Post-emergence effect at 20 g/ha against POLCO in %: 90%
[4]; 80 g/ha
  Post-emergence effect at 80 g/ha against POLCO in %: 100%
[5]; 20 g/ha
  Pre-emergence effect at 20 g/ha against POLCO in %: 90%
[5]; 80 g/ha
  Pre-emergence effect at 80 g/ha against POLCO in %: 90%
[6]; 20 g/ha
  Pre-emergence effect at 20 g/ha against KCHSC in %: 100%
[6]; 80 g/ha
  Pre-emergence effect at 80 g/ha against KCHSC in %: 100%
[7]
  Pre-emergence effect at 80 g/ha against PHBPU in %: 90%
[8]; 20 g/ha
  Post-emergence effect at 20 g/ha against ABUTH in %: 90%
[8]; 80 g/ha
  Post-emergence effect at 80 g/ha against ABUTH in %: 100%
[9]; 20 g/ha
  Pre-emergence effect at 20 g/ha against VERPE in %: 80%
[9]; 80 g/ha
  Pre-emergence effect at 80 g/ha against VERPE in %: 90%
[10]; 20 g/ha
  Post-emergence effect at 20 g/ha against VIOTR in %: 100%
[10]; 80 g/ha
  Post-emergence effect at 80 g/ha against VIOTR in %: 100%
[11]; 20 g/ha
  Pre-emergence effect at 20 g/ha against MATIN in %: 100%
[11]; 80 g/ha
  Pre-emergence effect at 80 g/ha against MATIN in %: 100%
[12]; 20 g/ha
  Pre-emergence effect at 20 g/ha against ALOMY in %: 80%
[12]; 80 g/ha
  Pre-emergence effect at 80 g/ha against ALOMY in %: 100%
[13]; 20 g/ha
  Pre-emergence effect at 20 g/ha against AVEFA in %: 80%
[13]; 80 g/ha
  Pre-emergence effect at 80 g/ha against A VEFA in %: 100%
[14]; 20 g/ha
  Pre-emergence effect at 20 g/ha against AMARE in %: 100%
[14]; 80 g/ha
  Pre-emergence effect at 80 g/ha against AMARE in %: 100%
[15]; 20 g/ha
  Pre-emergence effect at 20 g/ha against SETVI in %: 90%
[15]; 80 g/ha
  Pre-emergence effect at 80 g/ha against SETVI in %: 100%
[16]; 20 g/ha
  Post-emergence effect at 20 g/ha against VERPE in %: 90%
[16]; 80 g/ha
  Post-emergence effect at 80 g/ha against VERPE in %: 100%
[17]; 20 g/ha
  Post-emergence effect at 20 g/ha against AMARE in %: 100%
[17]; 80 g/ha
  Post-emergence effect at 80 g/ha against AMARE in %: 100%
[18]; 20 g/ha
  Post-emergence effect at 20 g/ha against PHBPU in %: 90%
[18]; 80 g/ha
  Post-emergence effect at 80 g/ha against PHBPU in %: 100%
[19]; 20 g/ha
  Post-emergence effect at 20 g/ha against MATIN in %: 100%
[19]; 80 g/ha
  Post-emergence effect at 80 g/ha against MATIN in %: 100%
[20]; 20 g/ha
  Pre-emergence effect at 20 g/ha against LOLRI in %: 90%
[20]; 80 g/ha
  Pre-emergence effect at 80 g/ha against LOLRI in %: 90%
[21]; 20 g/ha
  Post-emergence effect at 20 g/ha against ALOMY in %: 80%
[21]; 80 g/ha
  Post-emergence effect at 80 g/ha against ALOMY in %: 90%
[22]
  Post-emergence effect at 80 g/ha against LOLRI in %: 90%
[23]; 20 g/ha
  Pre-emergence effect at 20 g/ha against DIGSA in %: 100%
[23]; 80 g/ha
  Pre-emergence effect at 80 g/ha against DIGSA in %: 100%
[24]; 20 g/ha
  Pre-emergence effect at 20 g/ha against VIOTR in %: 100%
[24]; 80 g/ha
  Pre-emergence effect at 80 g/ha against VIOTR in %: 100%
[25]; 20 g/ha
  Post-emergence effect at 20 g/ha against SETVI in %: 100%
[25]; 80 g/ha
  Post-emergence effect at 80 g/ha against SETVI in %: 100%
[26]; 20 g/ha
  Post-emergence effect at 20 g/ha against DIGSA in %: 90%
[26]; 80 g/ha
  Post-emergence effect at 80 g/ha against DIGSA in %: 90%
